Patent US4342762A, “Basic ethers and pharmaceutical compositions containing the same” (Egyt Gyogyszervegyeszeti Gyar, priority 1979, dated 1982)

Assays:
[1] = acute oral toxicity, graphic method of Litchfield-Wilcoxon, 4 days observation; conditions: mouse, in vivo
Description: The analgesic effect of the new compounds according to the invention was determined by the method of Wirth et al. (Wirth, W., Gosswald, R., Horlein. K., Risse, Kl. H., Kreiskott, H.: Arch. Int. Pharmacodyn. 115, 1; (1958)). 0.4 ml of 0.5% acetic acid was administered i.p. to white mice, and the characteristic "writhing" reactions were counted after 5 minutes. […] The results are given in Table I. The toxicity data determined on white mice of both sexes weighing 18-24 g belonging to the strain CFLP are also given. Administration was effected with an oral dose of 20 ml/kg. After treatment the animals were kept under observation for 4 days. The toxicity data (LD50 mg/kg) were determined by the graphic method of Litchfield-Wilcoxon [Litchfield, J.T., Wilcoxon, E. W., J Pharmacol. Exp. Therap. 96, 99; (1949)].

white mice [2] = assay: analgesic effect, inhibition of acetic acid "writhing" reactions (Wirth et al.); type: in vivo; conditions: for ED50: Mus musculus, read-out: Analgesic effect ED50; for Analgesic effect Therap.index: therapeutic index
Description: The analgesic effect of the new compounds according to the invention was determined by the method of Wirth et al. (Wirth, W., Gosswald, R., Horlein. K., Risse, Kl. H., Kreiskott, H.: Arch. Int. Pharmacodyn. 115, 1; (1958)). 0.4 ml of 0.5% acetic acid was administered i.p. to white mice, and the characteristic "writhing" reactions were counted after 5 minutes. The compounds to be tested had been orally administered an hour before the administration of the acetic acid. The activity is expressed as a percentage of the inhibition referred to the data observed on the control group. The results are given in Table I. The toxicity data determined on white mice of both sexes weighing 18-24 g belonging to the strain CFLP are also given. Administration was effected with an oral dose of 20 ml/kg. After treatment the animals were kept under observation for 4 days. The toxicity data (LD50 mg/kg) were determined by the graphic method of Litchfield-Wilcoxon [Litchfield, J.T., Wilcoxon, E. W., J Pharmacol. Exp. Therap. 96, 99; (1949)].

white mice [3] = assay: inhibition of maximal electroshock (MES) (Swinyard et al.); type: in vivo; conditions: for ED50: Mus musculus, oral, 1 hour before electroshock 50 Hz, 45 mA, 0.4 sec, total inhibition of tonic extensor convulsion; for Inhibition of MES Th. I.: therapeutic index
Description: (§1) The antiepileptic effect was investigated on white mice, after oral administration. The inhibition of maximal electroshock (MES) was determined by the method of Swinyard et al. [Swinyard et al. J. Pharmacol. Exp. Ther. 106, 319-330 (1952)]. White mice weighing 20-25 g were subjected to electric shock through corneal electrodes (Parameters: 50 Hz, 45 mA, 0.4 sec.). The total inhibition of the tonic extensor convulsion was considered as criterion of the anti-convulsive effect. The test-substance had been orally administered one hour before the electroshock. The inhibition of pentetrazole convulsion was determined on white mice by the modified method of Banziger and Hane [Banziger, R., Hane, L.D. Arch. Int. Pharmacodyn. 167, 245-249; (1967)]. I." stands for "therapeutic index."

white mice [4] = assay: inhibition of pentetrazole convulsion (modified Banziger and Hane); type: in vivo; conditions: for ED50: Mus musculus, oral; for Inhibition of pentetrazole convulsion Th. I.: therapeutic index
Description: as §1

white mice [5] = assay: inhibition of nicotine-lethality (Stone); type: in vivo; conditions: for ED50: Mus musculus, oral, 1 hour before 1.4 mg/kg nicotine
Description: The inhibition of nicotine-lethality was determined on white mice by the method of Stone [Stone, C. A., Mecklenburg, K. L., Torchiana, M. L., Arch. Int. Pharmacodyn.

mice = assay: potentiating of hexobarbital-narcosis (Kaergaard); type: in vivo; conditions: for ED50: Mus musculus, iv, 40 mg/kg hexobarbital i.v., positive: sleeping period at least 2.5 times control; for Potentiating of narcosis Th.I.: therapeutic index
Description: (§2) The effect on the inhibition of the oriental activity (inhibition of the motility) was investigated on white mice in a Dews apparatus applied with 8 canals by the method of Borsy [Borsy, J., Csanyi, E., Lazar, I., Arc. Int. Pharmacodyn. 124, 1-2 (1960)]. After an oral pretreatment of 30 minutes the number of light-interruptions due to the movements of groups consisting of 3-3 mice was registered. The observation lasted for 30 minutes. The effect of the compounds exerted on the duration of hexobarbital-narcosis was tested by the method of Kaergaard [Kaergaard, N. C., Magnussen, M. P., Kampmann, E., Frey, H. H., Arc. Int. Pharmacodyn. 2, 170; (1967)]. Groups of animals consisting of 6-6 mice were treated.

white mice [6] = assay: inhibition of motility, Dews apparatus (Borsy); type: in vivo; conditions: for ED50: Mus musculus, oral pretreatment 30 minutes, observation 30 minutes; for Inhibition of motility Th.I.: therapeutic index
Description: as §2

[7] = oral, 20 ml/kg, both sexes 18-24 g, 4 days observation
[8] = oral, 1 hour before i.p. 0.4 ml 0.5% acetic acid

Row | SMILES | LD50 at 96 h [1, 7] | ED50 (white mice [2]; po) | Analgesic effect Therap.index (white mice [2]) | ED50 (white mice [3]) | Inhibition of MES Th. I. (white mice [3]) | ED50 (white mice [4]) | Inhibition of pentetrazole convulsion Th. I. (white mice [4]) | ED50 (white mice [5]) | Inhibition of nicotine-lethality Therapeutic index (white mice [5]) | ED50 (mice) | Potentiating of narcosis Th.I. (mice) | ED50 (white mice [2]; [8]) | ED50 (white mice [6]) | Inhibition of motility Th.I. (white mice [6]) | LD50 at 96 h ([1]; po)
1 | CC(COC1(Cc2ccccc2)CC2CCC1(C)C2(C)C)CN(C)C (racemic) [Example 2, (±)-2-benzyl-2-(3'-dimethylamino-2'-methylpropoxy)-1,7,7-trimethyl-bicyclo(2,2,1) heptane] | 1700 mg/kg | 85 mg/kg | 20.0 | 120 mg/kg | 14.2 | 88 mg/kg | 19.3 | 20 mg/kg | 85,0 | 15 mg/kg | 113.3 |  |  |  | 
2 | CC(C)N(CCCOC1(Cc2ccccc2)CC2CCC1(C)C2(C)C)C(C)C (racemic) [Example 5, (±)-2-benzyl-2-(3'-diisopropylaminopropoxy)-1,7,7-trimethyl-bicyclo(2,2,1)heptane] | 2000 mg/kg |  | 20.0 | 380 mg/kg | 5.3 | 140 mg/kg | 14.3 |  |  | 120 mg/kg | 16.7 | 100 mg/kg | 190 mg/kg | 10.5 | 
3 | CC(COC1(c2ccc(Cl)cc2)CC2CCC1(C)C2(C)C)CN(C)C (single isomer, unassigned; (+)) [Example 13, (+)-2-[(3'-dimethylamino-2'-methyl)-propoxy]-2-(p-chloro-phenyl)-1,7,7-trimethyl-bicyclo(2,2,1)heptane] |  |  | 10.0 | 140 mg/kg | 14.3 | 140 mg/kg | 14.3 |  |  |  |  | 200 mg/kg | 170 mg/kg | 11.8 | 2000 mg/kg
4 | CCN(CC)CCCOC1(Cc2ccccc2)CC2CCC1(C)C2(C)C (racemic) [Example 6, (±)-2-benzyl-2-(3'-diethylaminopropoxy)-1,7,7-trimethyl-bicyclo(2,2,1)heptane] | 2000 mg/kg |  | 40.0 | 120 mg/kg | 16.7 | 54 mg/kg | 37.0 |  |  | 80 mg/kg | 25.0 | 50 mg/kg | 100 mg/kg | 20.0 | 
5 | CN(C)CCCOC1(Cc2ccc(Cl)cc2)CC2CCC1(C)C2(C)C (racemic) [Example 11, (±)-2-(p-chloro-benzyl)-2-(3'-dimethylaminopropoxy)-1,7,7-trimethyl-bicyclo(2,2,1)heptane] | 1500 mg/kg |  | 20.0 |  |  |  |  |  |  | 130 mg/kg | 11.5 | 75 mg/kg | 130 mg/kg | 11.5 | 
6 | OC(CCN1CCCCC1)(c1ccccc1)C1CCCCC1 (stereo not drawn) [Trihexyphenidyl, α-Cyclohexyl-α-phenyl-1-piperidine-propanol, reference compound] |  |  |  |  |  |  |  | 40 mg/kg | 9.13 |  |  |  |  |  | 
7 | COc1ccc(C2(OCCCN(C)C)CC3CCC2(C)C3(C)C)cc1 (racemic) [Example 22, (±)-2-(p-methoxyphenyl)-2-(3'-dimethylaminopropoxy)-1,7,7-trimethyl-bicyclo(2,2,1)heptane] | 1000 mg/kg |  | 13.8 |  |  | 96 mg/kg | 10.4 |  |  | 80 mg/kg | 12.5 | 72 mg/kg | 100 mg/kg | 10.0 | 
8 | CN(C)CCCOC1(Cc2ccccc2)CC2CCC1(C)C2(C)C (single isomer, unassigned) [Example 7, D-(-)-2-benzyl-2-(3'-dimethylaminopropoxy)-1,7,7-trimethyl-bicyclo(2,2,1)heptane] | 1200 mg/kg | 70 mg/kg | 17.1 | 56 mg/kg | 21.4 | 66 mg/kg | 18.2 | 25 mg/kg | 48.0 |  |  |  | 90 mg/kg | 13.3 | 
9 | CCN(CC)CCOC1(c2cccs2)CC2CCC1(C)C2(C)C (racemic) [Example 17, (±)-2-(2'-diethylaminoethoxy)-2-(2"-thienyl)-1,7,7-trimethyl-bicyclo(2,2,1)heptane] | 980 mg/kg | 50 mg/kg | 19.6 |  |  | 60 mg/kg | 16.3 | 50 mg/kg |  |  |  |  |  |  | 
10 | CN(C)CCCOC1(Cc2ccccc2)CC2CCC1(C)C2(C)C (racemic) [Example 1, (±)-2-benzyl-2-(3'-dimethylaminopropoxy)-1,7,7-trimethyl-bicyclo(2,2,1)heptane] | 1600 mg/kg | 120 mg/kg | 13.3 | 130 mg/kg | 12.3 |  |  | 38 mg/kg | 42.1 | 90 mg/kg | 17.7 |  | 110 mg/kg | 14.5 | 
11 | CN(C)CCOC1(c2ccccc2)CC2CCC1(C)C2(C)C (racemic) [Example 15, (±)-2-(2'-dimethylaminoethoxy)-2-phenyl-1,7,7-trimethyl-bicyclo(2,2,1)heptane] | 900 mg/kg | 23 mg/kg | 39.0 |  |  |  |  | 30 mg/kg | 30.0 | 40 mg/kg | 22.5 |  |  |  | 
